For assay [1], the target named is T1, human 5-HT4(b) receptor (Homo sapiens, UniProt Q13639). Kind of assay: Radioligand binding assay with [3H]GR113808. How it is done:
(§1) The development of HEK293 cell lines stably expressing human 5-HT4(b) receptors was described and published previously (Bach et al. 2001). Briefly, HEK293 cells (ATCC) were grown in Dulbecco's modified Eagle's medium with 10% foetal calf serum and penicillin (100 U/ml) and streptomycin (100 μg/ml). Cells were transfected with plasmid DNA (pcDNA3.1(−) containing human 5-HT4(b) receptor cDNA) using SuperFect Transfection Reagent (QIAGEN) according to the manufacturers protocol. Serial dilutions of transfected cells were plated in 96 well plates containing G418 (geneticin; Amersham) at 0.4 mg/ml, and isolated single colonies of cells transformed to the neomycin-resistant phenotype were expanded and tested for expression of serotonin receptors by measuring serotonin-stimulated adenylyl cyclase activity (Themmen et al. 1993). Transformed cells were always grown in the presence of G418 (0.4 mg/ml). For binding and adenylyl cyclase analysis, stable cell lines were grown and maintained in UltraCULTURE™ general purpose serum-free medium (BioWhittaker, Walkersville, Md., USA), supplemented with L-glutamine (2 mM), penicillin (100 U/ml) and streptomycin (100 μg/ml).
(§2) Membranes were prepared from stably transfected HEK293 cells cultured on 150-mm cell culture dishes and grown to 80% confluence in serum-free medium (UltraCULTURE™, BioWhittaker) with penicillin (10 U/ml) and 2 mM L-Glutamine (BioWhittaker). Cells were washed twice with 10 ml ice-cold HBSS, scraped with a rubber policeman in 10 ml ice-cold HBSS and collected by centrifugation at 800 g for 5 min at 4° C. The cell pellet was resuspended in 1 ml/dish ice-cold STE buffer (27% (w/v) sucrose, 50 mM Tris-HCl, pH 7.5 at 20° C., 5 mM EDTA) and homogenized with an Ultra-Turrax (IKA) homogenizer, using five 10 s bursts with 30 s cooling in ice-water between bursts. To remove nuclei, the homogenate was centrifuged at 300 g for 5 min at 4° C. and the supernatant was further centrifuged at 17000 g for 20 min at 4° C. and the supernatant removed. The crude membrane pellet was resuspended with ten strokes of tight fitting pestle B in a Dounce glass-glass homogenizer in 1 ml/dish ice-cold TE (50 mM Tris-HCl, pH 7.5 at RT, 5 mM EDTA). This procedure was repeated twice and the resuspended membranes were finally aliquotted and flash frozen in liquid nitrogen and stored at −70° C. until use.
Binding assays were performed on membranes of HEK293 cells stably expressing the human 5-HT4(b) receptor (refs.) in 96-well, round-bottom microtiter plates with total reaction volumes of 50-200 μl, containing the indicated concentration of [^3H]GR113808 with or without competing unlabelled ligand in a binding buffer containing 50 mM Tris-HCl (pH 7.5 at RT), 1 mM EDTA, 5 mM EGTA, 2 mM MgCl2, 1 mM ascorbate, 0.1% BSA and 100 μM GTP. The plates were incubated at 23 EC for 60 min and harvested onto UniFilter™-96 GF/C™ (Packard Instrument Co., Meriden, Conn., USA), presoaked in 0.3% polyethyleneimine (Sigma), using a Packard FilterMate Universal Harvester with 96-well format, and washed 4-6 times with approximately 0.25 ml/well of ice-cold buffer, containing 50 mM Tris-HCl (pH 7.0 at RT) and 2 mM MgCl2. The filters were dried and counted at approximately 40% efficiency in a Top-Count liquid scintillation counter (Packard), using 20 μl per filter well of Micro-Scint liquid scintillation cocktail (Packard).
(§3) Binding and adenylyl cyclase data were analyzed by non-linear regression using Microsoft Excel with the Solver add-in, using the below equations.
Competitive binding assays—The data were fit to the equation
where a is non-specific binding, b is total binding in the absence of competitor, c is IC50, and x is the concentration of competitor. Where relevant, relative binding data were obtained by recalculating the data using a=0 and b=100.
(§4) IC50 values from competitive binding assays were converted to Kb values by the method of Cheng and Prusoff (1973).

Assay [2] addresses T1, human 5-HT4(b) receptor. Briefly: Adenylyl cyclase assay (antagonist pKb, agonist/antagonist properties). Particulars: membranes of HEK293 cells stably expressing human 5-HT4(b) receptor; for Kb: hyphen-separated values taken as single determinations. Format: biochemical. How it is done:
as §1, §2
Adenylyl cyclase activity was measured in membranes of HEK293 cells stably expressing the human 5-HT4(b) receptor (refs.) by determining conversion of [α-^32P]ATP to [^32P]cAMP in membranes prepared in STE by homogenization of cells grown and washed as described above in a Dounce glass-glass homogenizer by 10 strokes with the tight-fitting pestle. Membranes were kept on ice prior to assay. Adenylyl cyclase activities were measured in 10-μl aliquots in a final volume of 50 μl in the presence of 0.1 mM [α-^32P]ATP (1-2×10^6 cpm/assay), 4 mM MgCl2, 20 μM GTP, 1 mM EDTA, 1 mM [^3H]cAMP (ca. 10,000 cpm/assay), […] 3-isobutyl-1-methyl xanthine (IBMX; Sigma), a nucleoside triphosphate regenerating system consisting of 20 mM creatine phosphate (Sigma), 0.2 mg/ml creatine phosphokinase (Sigma) and 40 U/ml myokinase (Sigma) and additives described in the text and figures. When forskolin (Calbiochem, La Jolla, Calif., USA) was used the concentration was 100 μM. Incubations were for 20 min at 32° C. Cyclic AMP formed was quantified by the double column chromatography system of Salomon et al. (1974) as modified by Bockaert et al. (1976).
as §3
Activation of adenylyl cyclase—The data were fit to the equation
where a is basal adenylyl cyclase activity, b is maximal adenylyl cyclase activity stimulated by the agonist, c is EC50, and x is the concentration of agonist.
as §4

Assay [3] has as its target T2, hERG ion channel (Homo sapiens, UniProt Q12809).
T2 construct: expressed in transfected cells; host or cells: HEK-293, stably transfected
Briefly: hERG tail current, patch-clamp in HEK-293 cells stably transfected with hERG. Format: cell-based. How it is done: The purpose of this study was to assess the effects of the above compounds on hERG (human ether-a-go-go related gene) tail current by examining the acute effect of the test compounds on the hERG ion channel in an appropriate in vitro test system. The human embryonic kidney cell (HEK-293), which has been stably transfected with hERG ion channel cDNA, is a preparation that is considered suitable for this purpose.
Four concentrations of each test compound were tested in a screening assay to determine the liability to block hERG channels. Using the patch-clamp technique, peak hERG tail current amplitude was measured prior to and following exposure to the compounds at the following nominal concentrations:
for approximately 7 to 32 minutes (n=3 cells for each concentration). In addition, peak hERG tail current amplitude was measured in a separate group of 3 cells, prior to and following exposure to vehicle (0.1% DMSO) for time-matched vehicle data correction. Terfenadine (at the submaximally effective concentration of 50 nM, n=3), a known inhibitor of the IKr current, was used as a positive control compound.
The test compound data were corrected for the mean effect of vehicle and rundown and the concentration-response data were plotted and fitted with a sigmoidal function, from which the IC50 values for each compound were calculated.

Setting [4] is: [3H]GR113808 competition, membranes of HEK293 cells stably expressing human 5-HT4(b) receptor, hyphen-separated values taken as single determinations, read-out: Binding affinity (pKd value) (converted).
The mark [5] stands for this setting: read-out: Antagonist pKb value (converted).
[6] abbreviates: peak hERG tail current, HEK-293, corrected for vehicle and rundown, sigmoidal fit, read-out: hERG IC50.

Where “and” joins values, the source holds several entries; their conditions need not be identical. Equal entries are not always repeated. Where two headings read alike, the source gives them in different places.

T1 sequence (Q13639 whole entry): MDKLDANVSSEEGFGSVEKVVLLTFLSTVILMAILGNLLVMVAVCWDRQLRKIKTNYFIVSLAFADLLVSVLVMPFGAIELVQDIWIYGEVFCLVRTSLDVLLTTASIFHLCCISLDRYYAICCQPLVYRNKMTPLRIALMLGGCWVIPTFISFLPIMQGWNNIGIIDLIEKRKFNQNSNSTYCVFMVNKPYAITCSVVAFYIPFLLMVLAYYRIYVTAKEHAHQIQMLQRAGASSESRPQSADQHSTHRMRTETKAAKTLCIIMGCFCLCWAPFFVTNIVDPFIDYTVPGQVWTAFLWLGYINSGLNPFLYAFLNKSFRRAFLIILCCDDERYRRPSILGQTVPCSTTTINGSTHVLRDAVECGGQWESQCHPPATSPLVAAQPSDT
T2 sequence (Q12809 whole entry): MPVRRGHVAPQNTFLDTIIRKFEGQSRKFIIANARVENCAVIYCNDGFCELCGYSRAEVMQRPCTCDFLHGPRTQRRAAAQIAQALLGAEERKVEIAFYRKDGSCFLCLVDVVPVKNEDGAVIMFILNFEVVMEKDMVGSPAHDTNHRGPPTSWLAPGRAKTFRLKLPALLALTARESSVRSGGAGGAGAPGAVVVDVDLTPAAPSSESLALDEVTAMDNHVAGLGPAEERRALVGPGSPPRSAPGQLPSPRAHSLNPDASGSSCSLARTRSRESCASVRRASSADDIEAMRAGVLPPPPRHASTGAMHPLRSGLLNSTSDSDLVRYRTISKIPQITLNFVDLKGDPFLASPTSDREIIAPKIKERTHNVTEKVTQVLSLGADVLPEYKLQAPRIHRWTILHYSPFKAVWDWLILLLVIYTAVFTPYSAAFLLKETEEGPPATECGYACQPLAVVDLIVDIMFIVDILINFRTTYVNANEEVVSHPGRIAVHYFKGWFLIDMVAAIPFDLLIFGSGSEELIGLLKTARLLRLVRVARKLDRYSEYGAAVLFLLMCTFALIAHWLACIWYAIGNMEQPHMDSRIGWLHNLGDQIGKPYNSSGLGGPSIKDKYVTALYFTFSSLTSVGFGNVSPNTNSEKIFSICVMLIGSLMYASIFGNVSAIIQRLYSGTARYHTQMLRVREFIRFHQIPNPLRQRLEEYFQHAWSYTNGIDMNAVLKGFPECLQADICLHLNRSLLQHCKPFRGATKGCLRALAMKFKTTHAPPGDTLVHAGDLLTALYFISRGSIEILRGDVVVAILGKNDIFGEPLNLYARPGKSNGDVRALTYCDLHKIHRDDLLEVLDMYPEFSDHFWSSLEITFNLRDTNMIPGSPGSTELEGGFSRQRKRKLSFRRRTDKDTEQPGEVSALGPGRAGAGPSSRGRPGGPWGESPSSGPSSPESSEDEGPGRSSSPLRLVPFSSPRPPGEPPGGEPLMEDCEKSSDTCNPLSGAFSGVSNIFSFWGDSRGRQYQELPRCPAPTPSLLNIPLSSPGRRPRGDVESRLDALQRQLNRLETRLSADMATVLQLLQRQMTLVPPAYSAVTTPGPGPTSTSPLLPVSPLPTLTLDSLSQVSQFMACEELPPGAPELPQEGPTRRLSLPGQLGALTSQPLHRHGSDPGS

Regarding `COc1cc(N)c(Cl)cc1C(=O)NCC1CCN(Cc2ccc(-c3ccccc3C(=O)O)cc2)CC1` [Compound 18], the Kd in assay [1] (setting [4]) is 174 nM and 126 nM.
For `CCCCN1CCC(CNC(=O)c2c3n(c4ccccc24)CCCO3)CC1` [SB207266, reference compound], the Agonist/Antagonist properties entry in assay [2] was “Antagonist”. For the same compound, the Kb in assay [2] (setting [5]) is 0.0537 nM and 0.0372 nM and 0.269 nM. Also, in assay [1] (setting [4]), the Kd is 0.263 nM and 0.209 nM and 0.166 nM and 0.0355 nM and 0.0407 nM.
On to `O=C(OCC1CCN(C2CCCC(C(=O)O)C2)CC1)c1c2n(c3ccccc13)CCCO2` (stereo not shown) [Compound 25], for which the Agonist/Antagonist properties entry in assay [2] is “Antagonist”. Besides, the Kb in assay [2] (setting [5]) is 2.51 nM. Moreover, in assay [1], the Kd is 1.2 nM.
Turning to `O=C(O)c1ccccc1-c1ccc(CN2CCC(COC(=O)c3c4n(c5ccccc35)CCCO4)CC2)cc1` [Compound 8], the Kb in assay [2] (Antagonist pKb value) was 0.0631 nM and 0.331 nM. Further, the 50% inhibitory concentration (IC50) in assay [3] (setting [6]) was 47.5 µM. Also, the Kd in assay [1] is 0.0363 nM and 0.0776 nM.
For the compound `O=C(OCC1CCN(C2CCC(C(=O)O)C2)CC1)c1c2n(c3ccccc13)CCCO2` (stereo not shown) [Compound 24], the Agonist/Antagonist properties entry in assay [2] was “Antagonist”. For the same compound, the Kb in assay [2] (setting [5]) was 2.51 nM. In assay [3] (setting [6]), the IC50 came out at 209 µM. This compound showed a Kd in assay [1] of 1.15 nM.
Consider `O=C(OCC1CCN(Cc2ccc(-c3ccccc3-c3nn[nH]n3)cc2)CC1)c1c2n(c3ccccc13)CCCO2` [Compound 4], for which the Kb in assay [2] (Antagonist pKb value) was 0.00447 nM.
Compound `Cn1cc(C(=O)OCC2CCN(CCNS(C)(=O)=O)CC2)c2ccccc21` [GR113808, 1-methyl-1H-indole-3-carboxylic acid, [1-[2-[(methylsulfonyl)amino]ethyl]-4-piperidinyl]methyl ester, reference compound] showed a Kb in assay [2] (Antagonist pKb value) of 0.0891 nM. Further, the Agonist/Antagonist properties entry in assay [2] is “Antagonist”. In addition, the Kd in assay [1] was 0.112 nM and 0.0389 nM.
For the compound `O=C(OCC1CCN(C2C3CC4C(C3C(=O)O)C42)CC1)c1c2n(c3ccccc13)CCCO2` (stereo not shown) [Compound 23], in assay [2] (Antagonist pKb value), the Kb is 3.63 nM. Also, in assay [2], the Agonist/Antagonist properties entry is reported as “Antagonist”. The Kd in assay [1] was 1.51 nM.
On to `COc1cc(N)c(Cl)cc1C(=O)NCC1CCN(Cc2ccc(-c3ccccc3-c3nn[nH]n3)cc2)CC1` [Compound 20], for which the Kd in assay [1] (setting [4]) was 18.6 nM and 27.5 nM.
As for `O=C(NCC1CCN(Cc2ccc(-c3ccccc3-c3nn[nH]n3)cc2)CC1)c1c2n(c3ccccc13)CCCO2` [Compound 2], the Agonist/Antagonist properties entry in assay [2] is on record as “Antagonist”. The IC50 in assay [3] (setting [6]) was 27.5 µM. Also, in assay [1], the Kd is 3.89 nM and 4.17 nM and 4.37 nM.
As to `CC(C(=O)O)c1ccc(CN2CCC(COC(=O)c3c4n(c5ccccc35)CCCO4)CC2)cc1` (stereo not shown) [Compound 27], the Kb in assay [2] (Antagonist pKb value) was 1.62 nM. For the same compound, in assay [3], 25 µM corresponded to half-maximal inhibition (IC50). Moreover, the Kd in assay [1] is 0.513 nM.
As for `CC(C)(C(=O)O)c1ccc(CN2CCC(COC(=O)c3c4n(c5ccccc35)CCCO4)CC2)cc1` [Compound 29], in assay [2] (setting [5]), the Kb was 1.66 nM. Moreover, the Kd in assay [1] is 0.355 nM.
For `COC(=O)c1ccccc1-c1ccc(CN2CCC(CNC(=O)c3cc(Cl)c(N)cc3OC)CC2)cc1` [Compound 17], in assay [1] (setting [4]), the Kd is 3.72 nM and 5.01 nM.
`COC(=O)c1ccccc1-c1ccc(CN2CCC(COC(=O)c3c4n(c5ccccc35)CCCO4)CC2)cc1` [Compound 7]: in assay [2] (Antagonist pKb value), the Kb was 0.0132 nM and 0.0479 nM. In assay [3], this compound displayed an IC50 of 0.131 µM. Moreover, in assay [1], the Kd was 0.00251 nM.

For orientation: IC50 means the concentration at which inhibition is half-maximal.

Source of the values: patent publication US20120094989A1, “5-HT RECEPTOR MODULATING COMPOUNDS” (priority 2009, published 2012).
